Assay results: PubChem BioAssay (NCI)
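Grown in 96-well plates, cells were treated for 48 hours with each compound at five concentrations. Insufficient inhibition: endpoint recorded as highest concentration tested. GI50 = concentration required for 50% inhibition of growth. TGI marks complete inhibition of growth.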

System: MDA-MB-468 breast
Assay: DTP human tumour cell line panel, 48 h

Row | Compound | GI50 [µM] | TGI [µM]
1 | CC(=O)O[C@@H]1CC2C(C)(C)CCCC2(C)C2=C1C(=O)C(C(C)C)=CC2=O (stereo partly drawn) | 1.54 | 3.81
2 | Fc1cccc(COc2ccc(Nc3ncnc4cc(-c5ccc[nH]5)sc34)cc2Cl)c1 | 0.0446 | 0.306
3 | CC(CNC(Cc1ccccc1)c1ccccc1)NC(Cc1ccccc1)c1ccccc1 (stereo not drawn) | 1.74 | 3.67
4 | C[C@@H]1CN(CC(=O)N2CC(C)(C)c3nc(CO)c(Cc4ccc(F)cc4)cc32)[C@@H](CN2CCOC[C@H]2C)CN1 | 10.9 | 27.9
5 | CNC(=O)c1cc(N2CCc3cc(NC(=O)Nc4ccc(N5CCOCC5)c(C(F)(F)F)c4)ccc32)ccn1 | 5.22 | > 33.3
6 | C=C1CC[C@@H]2[C@](C)(COC(C)=O)[C@H](OC(C)=O)CC[C@@]2(C)[C@@H]1CC(Nc1ccc(S(=O)(=O)Nc2nccc(C)n2)cc1)C1=CCOC1=O (stereo partly drawn) | 1.99 | 4.31
7 | CC[C@H](CC#N)OC(=O)N[C@@H](C)c1cccc(NC(=O)Nc2ccc(-c3cnco3)c(OC)c2)c1 | 0.531 | 18.2
8 | ClCc1c(Cl)c(Cl)c(Cl)c(CCl)c1Cl | 1.57 | 3.11
9 | Cn1ccnc1C(=O)/C=C/c1ccc(CC(=O)Nc2ccccc2)cc1 | 1.71 | 7.11
